The supplement of paper PMC8633005

Tests used:
FM-MEL-2 [1] = conditions: 72 h
Description: (§1)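 Validation dose-response testing of selected drugs on NRAS-mutant melanoma patient-derived cells, run in 2D culture and in 3D spheroids (ultra-low attachment plates), in triplicate per concentration. Viability was read by CellTiter-Glo after 72 h. EC50 came from Breeze curve fitting, and DSS was calculated from the curve.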

FM-MEL-3 [2] = conditions: 72 h
Description: as §1

FM-MEL-6 [3] = conditions: 72 h
Description: as §1

FM-MEL-2 [4] = experiment: drug sensitivity score (DSS) (DSS (unitless)); higher = more sensitive; conditions: 72 h
Description: as §1

FM-MEL-3 [5] = experiment: as above; conditions: 72 h
Description: as §1

FM-MEL-6 [6] = experiment: as above; conditions: 72 h
Description: as §1

Bowes = experiment: drug sensitivity score (DSS) (DSS (unitless, 0-50 scale)); higher = more sensitive (stronger viability inhibition); extreme values may be limits of the assay; conditions: 72 h; culture: 2D
Procedure, shortened: (§2)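 Melanoma cell lines and patient-derived melanoma cultures at 1000–1500 cells per well were exposed in 2D, in 384-well plates, to a 527-compound oncology library at five concentrations spanning a 10,000-fold range for 72 h at 37 °C. CellTiter-Glo luminescence then measured viability. From dose-response curves fitted in the in-house Breeze software, a drug sensitivity score, a modified area-under-curve measure, was obtained.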

FM-MEL-2 [7] = experiment: as above; conditions: 72 h; culture: 2D
Procedure, shortened: as §2

FM-MEL-3 [8] = experiment: as above; conditions: 72 h; culture: 2D
Procedure, shortened: as §2

FM-MEL-6 [9] = experiment: as above; conditions: 72 h; culture: 2D
Procedure, shortened: as §2

SK-MEL-28 = experiment: as above; conditions: 72 h; culture: 2D
Procedure, shortened: as §2

SK-MEL-2 = experiment: as above; conditions: 72 h; culture: 2D
Procedure, shortened: as §2

WM165 = experiment: as above; conditions: 72 h; culture: 2D
Procedure, shortened: as §2

WM852 = experiment: as above; conditions: 72 h; culture: 2D
Procedure, shortened: as §2

SMILES	EC50 (cell viability) (FM-MEL-2 [1]; culture: 2D) [nM]	EC50 (cell viability) (FM-MEL-2 [1]; culture: 3D spheroid) [nM]	EC50 (cell viability) (FM-MEL-3 [2]; culture: 2D) [nM]	EC50 (cell viability) (FM-MEL-3 [2]; culture: 3D spheroid) [nM]	EC50 (cell viability) (FM-MEL-6 [3]; culture: 2D) [nM]	EC50 (cell viability) (FM-MEL-6 [3]; culture: 3D spheroid) [nM]	drug sensitivity score (FM-MEL-2 [4]; culture: 2D)	drug sensitivity score (FM-MEL-2 [4]; culture: 3D spheroid)	drug sensitivity score (FM-MEL-3 [5]; culture: 2D)	drug sensitivity score (FM-MEL-3 [5]; culture: 3D spheroid)	drug sensitivity score (FM-MEL-6 [6]; culture: 2D)	drug sensitivity score (FM-MEL-6 [6]; culture: 3D spheroid)	drug sensitivity score (Bowes)	drug sensitivity score (FM-MEL-2 [7])	drug sensitivity score (FM-MEL-3 [8])	drug sensitivity score (FM-MEL-6 [9])	drug sensitivity score (SK-MEL-28)	drug sensitivity score (SK-MEL-2)	drug sensitivity score (WM165)	drug sensitivity score (WM852)
Cn1c(=O)n(-c2ccc(C(C)(C)C#N)cc2)c2c3cc(-c4cnc5ccccc5c4)ccc3ncc21 [Dactolisib]	15.2	12.1	22.6	7.4	26.9	13.1	13.5	14.6	13.7	22.9	7.4	10.1	12.8	12.5	15.1	15.1	13.5	9.9	17.6	10.7
Cn1cnc2c(F)c(Nc3ccc(Br)cc3F)c(C(=O)NOCCO)cc21 [Binimetinib]	40.3	28.8	7.2	10.1	34.3	15.7	11	12.9	19.5	21.1	9.4	15.7	0	8.7	13.7	7.7	8.8	6.3	9.5	0.4
CC(C)NC(=O)COc1cccc(-c2nc(Nc3ccc4[nH]ncc4c3)c3ccccc3n2)c1 [KD025]	55.7	42.8	> 5000	440	> 5000	> 5000	21.7	24.2	0	4.5	0	0	2.6	18.9	13	3	1.6	0	5.4	7.5
Cc1cn(-c2cc(NC(=O)c3ccc(C)c(Nc4nccc(-c5cccnc5)n4)c3)cc(C(F)(F)F)c2)cn1 [Nilotinib]	869	270	940	266	> 10000	> 10000	10.9	16.7	9.5	15.1	0	0	0	12.4	8.5	2.1	0	0	0	0.8
CC(C)Nc1cc(-c2c[nH]c(C(=O)N[C@H](CO)c3cccc(Cl)c3)c2)c(Cl)cn1 [Ulixertinib]	127	76	279	83.1	236	125	16.5	19.4	17	25.2	8.1	15.3	4.2	15	17.1	7.6	13.3	9.7	12.6	4.1
COc1ccc(-c2ccc3c(N4CCOC[C@@H]4C)nc(N4CCOC[C@@H]4C)nc3n2)cc1CO [AZD8055]	60.6	54.1	72.8	50.7	94.2	66.2	18.2	18.1	20.3	26.2	11.3	13.4	20.1	15.6	14.2	17.3	16.4	13.9	21.7	15
CC(C)(C)c1cc(NC(=O)Nc2ccc(-c3cn4c(n3)sc3cc(OCCN5CCOCC5)ccc34)cc2)no1 [Quizartinib]	95.7	45.3	> 1000	> 1000	> 1000	> 1000	10.5	14.5	0	0	0	0	1.2	10.5	5.1	0	0	0	1	0.3
O=C(Nc1ccc2[nH]nc(-c3ccncc3)c2c1)[C@@H]1CCN(CC(=O)N2CCN(c3ccc(-c4ncccn4)cc3)CC2)C1	206	54.5	97.1	69	210	120	17.7	25	22.5	26.2	11.2	17.2	1.3	20.8	22.8	12.7	21.8	15.6	21.2	8.2
c1cn2cc(-c3ccc4cn[nH]c4c3)nc(Nc3ccc(N4CCOCC4)cc3)c2n1 [Entospletinib]													0	6.7	0	0	0	0	0	0
O=C(/C=C\n1cnc(-c2cc(C(F)(F)F)cc(C(F)(F)F)c2)n1)NNc1cnccn1 [Selinexor]													12.4	9.6	11.5	8.4	9.2	13.3	18.7	8.2
C=CC(=O)N1CCC[C@@H](n2nc(-c3ccc(Oc4ccccc4)cc3)c3c(N)ncnc32)C1 [Ibrutinib]													2.8	0.2	0	0	0	0	0	0
O[C@H]1CC[C@H](Nc2ncc3nc(Nc4c(F)cc(F)cc4F)n([C@H]4CCOC4)c3n2)CC1 [Tanzisertib]													0	0	0.1	0	0.8	0	0.1	0
CNS(=O)(=O)Nc1nccc(Cc2c(C)c3ccc(Oc4ncccn4)cc3oc2=O)c1F													0.6	6.3	10.7	0.2	3.2	4.2	3.2	0
CN1CCN(C2CCN(C(=O)Nc3cc(Oc4ccc(NC(=O)C5(C(=O)Nc6ccc(F)cc6)CC5)c(F)c4)ccn3)CC2)CC1 [Golvatinib]													2.3	1.5	0	0	0	0	0	0.5
Cc1cc(OCc2nnc(SC3CCCC3)n2-c2cccnc2)ccc1-c1ccc(S(C)(=O)=O)cc1 [NMS-873]													11.1	4.1	11.4	5	6.8	4.4	9.4	16.9
C=C1C[C@@H]2[C@H](CC[C@]3(C)C(=O)CC[C@@H]23)[C@@]2(C)C=CC(=O)C=C12 [Exemestane]													1.4	0	0	0	0	0	0.2	0.3

SMILES	EC50 (cell viability) (FM-MEL-2 [1]; culture: 2D) [nM]	EC50 (cell viability) (FM-MEL-2 [1]; culture: 3D spheroid) [nM]	EC50 (cell viability) (FM-MEL-3 [2]; culture: 2D) [nM]	EC50 (cell viability) (FM-MEL-3 [2]; culture: 3D spheroid) [nM]	EC50 (cell viability) (FM-MEL-6 [3]; culture: 2D) [nM]	EC50 (cell viability) (FM-MEL-6 [3]; culture: 3D spheroid) [nM]	drug sensitivity score (FM-MEL-2 [4]; culture: 2D)	drug sensitivity score (FM-MEL-2 [4]; culture: 3D spheroid)	drug sensitivity score (FM-MEL-3 [5]; culture: 2D)	drug sensitivity score (FM-MEL-3 [5]; culture: 3D spheroid)	drug sensitivity score (FM-MEL-6 [6]; culture: 2D)	drug sensitivity score (FM-MEL-6 [6]; culture: 3D spheroid)	drug sensitivity score (Bowes)	drug sensitivity score (FM-MEL-2 [7])	drug sensitivity score (FM-MEL-3 [8])	drug sensitivity score (FM-MEL-6 [9])	drug sensitivity score (SK-MEL-28)	drug sensitivity score (SK-MEL-2)	drug sensitivity score (WM165)	drug sensitivity score (WM852)
CN[C@@H](C)C(=O)N[C@H]1CN(C(=O)CC(C)C)CC[C@H]2CC[C@@H](C(=O)NC(c3ccccc3)c3ccccc3)N2C1=O [AT-406]													1.9	9.7	0	2.2	0	0.1	0	0
O=C(O)CC1CC(c2ccccc2)=NO1 (centres undefined) [VGX-1027]													0	0	0	0	0	0	0	0
C=CC(=O)Nc1cccc(Oc2nc(Nc3ccc(N4CCN(C)CC4)cc3)nc3ccsc23)c1 [Olmutinib]													0.8	0	0	0	0	0	0	0
CCn1c(=O)c(-c2ccc(Cl)cc2Cl)cc2cnc(Nc3ccc(N4CCNCC4)c(F)c3)nc21 [FRAX486]													9.7	0	0	1.9	3.2	0.5	7.6	1.4
Cc1ccc(-c2cc(C(F)(F)F)nn2-c2ccc(S(N)(=O)=O)cc2)cc1 [Celecoxib]													0	0	0	0	0	0	0	0
CC#CC(=O)N1CC[C@@H](n2c(=O)n(-c3ccc(Oc4ccccc4)cc3)c3c(N)ncnc32)C1 [Tirabrutinib]													2	0	0	0	0	0	0	0
Cc1ccc(F)c(NC(=O)Nc2ccc(-c3cccc4[nH]nc(N)c34)cc2)c1 [Linifanib]													2.2	0.1	0	0	0	0	0	0
CNCc1ccc(-c2[nH]c3cc(F)cc4c3c2CCNC4=O)cc1 [Rucaparib]													0.6	0.8	0.5	0.7	0	0	3.8	0
C[C@@H](Nc1cc(F)cc(F)c1)c1cc(C(=O)N(C)C)cc2c(=O)cc(N3CCOCC3)oc12 [AZD-8186]													2.6	2.4	0	2.2	3.7	0	0.4	0.8
Cn1cncc1[C@@](N)(c1ccc(Cl)cc1)c1ccc2c(c1)c(-c1cccc(Cl)c1)cc(=O)n2C [Tipifarnib]													21.1	7.4	11.2	6.2	5	3.6	10.4	3.4
CC1(C)CCC(c2ccc(Cl)cc2)=C(CN2CCN(c3ccc(C(=O)NS(=O)(=O)c4ccc(N[C@H](CCN5CCOCC5)CSc5ccccc5)c(S(=O)(=O)C(F)(F)F)c4)cc3)CC2)C1 [Navitoclax]													0	4	12	0	0	0	0	0
CN1CCC(CNc2ccc3ncc(-c4cccc(OC(F)(F)F)c4)n3n2)CC1 [SGI-1776]													5.5	5.9	5.1	5.3	6.1	4.8	6.1	6.1
CC(C)C[C@H](NC(=O)[C@H](Cc1ccccc1)NC(=O)c1cnccn1)B(O)O [Bortezomib]													24.9	14.1	28.4	29	27.3	26.5	27	11.8
CC(=O)c1c(C)c2cnc(Nc3ccc(N4CCNCC4)cn3)nc2n(C2CCCC2)c1=O [Palbociclib]													4.6	3.8	2.3	4.2	6.3	0.7	5.8	3.1
CC(C)(C)c1cnc(CSc2cnc(NC(=O)C3CCNCC3)s2)o1 [SNS-032]													31.8	12.7	19.2	26.1	18.9	19.2	25	18.2
